{"source": "patent US20150191446A1", "about": "“SELENO-COMPOUNDS AND THERAPEUTIC USES THEREOF” (THE HEART RESEARCH INSTITUTE LTD, priority 2010, published 2015)", "key": {"[1]": {"tested_on": "wounds in wildtype C57/BL6 mice", "test": "Circular incision wound model, topical treatment, wildtype mice", "format": "in vivo, mouse", "details": "for pus formation in wound / wound healing (appearance): topical; for wound healing (appearance): FIG. 25, 26", "method": "In the experimental testing according to the present invention, pairs of circular incision wounds on the backs of wildtype C57/BL6 and db−/db− mice (n=12 each) were treated daily with a seleno-compound according to the current invention or vehicle, topically for 10 days. Wound closure, vascular perfusion and tissue histology were assessed."}, "[2]": {"target": "bovine serum albumin (Bos taurus, UniProt P02769)", "sequence (P02769 25-607)": "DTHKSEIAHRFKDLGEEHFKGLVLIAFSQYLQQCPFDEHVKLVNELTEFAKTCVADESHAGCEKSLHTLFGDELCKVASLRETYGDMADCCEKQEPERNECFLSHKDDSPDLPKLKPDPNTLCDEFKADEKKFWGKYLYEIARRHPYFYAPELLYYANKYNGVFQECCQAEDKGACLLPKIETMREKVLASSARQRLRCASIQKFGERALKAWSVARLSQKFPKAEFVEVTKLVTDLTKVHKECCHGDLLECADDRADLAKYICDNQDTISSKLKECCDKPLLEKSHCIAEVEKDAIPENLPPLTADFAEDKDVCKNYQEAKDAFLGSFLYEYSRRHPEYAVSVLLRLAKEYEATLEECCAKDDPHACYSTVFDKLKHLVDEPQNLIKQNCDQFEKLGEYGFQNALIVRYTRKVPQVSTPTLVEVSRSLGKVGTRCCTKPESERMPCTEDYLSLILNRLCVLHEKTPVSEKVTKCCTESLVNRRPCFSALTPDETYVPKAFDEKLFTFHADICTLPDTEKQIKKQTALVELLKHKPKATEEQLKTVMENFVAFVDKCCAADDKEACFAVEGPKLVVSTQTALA", "test": "ThioGlo assay, recycling of selenoxides by thiols: bovine serum albumin", "details": "thiol group on bovine serum albumin", "method": "(§1) The purpose of these experiments was to determine whether thiols could reduce the selenoxides formed on oxidation of the seleno compounds. The ThioGlo assay was used to monitor the loss of thiol groups upon addition of selenoxides as this agent produces a fluorescent product in the presence of reduced thiols.\n(§2) The ThioGlo reagent was prepared by diluting 30 μL of a stock solution (5 mg in 5.070 mL acetonitrile) in 2970 μL of 0.1 M pH 7.4 phosphate buffer. Preparation of the developing reagent was performed immediately prior to addition to standards or samples. Standard curves were prepared by addition of varying volumes, between 0 and 50 μL, of 10 μM GSH solution to wells in a 96-well plate. The volume in each well was made up to 50 μL with 0.1 M pH 7.4 phosphate buffer. 50 μL of ThioGlo•reagent was added to each standard, and incubated in the dark for 5 minutes. The fluorescence was measured using a PerSeptive Biosystems CytoFluor II fluorescence multi-well plate reader with λex=360 nm λem=530 nm. Standards using 10 μM Cys and 2 mg/mL BSA were produced in the same method.\n(§3) Solutions of 8 μM SeMetO were produced by mixing 20 μM SeMet and 16 μM HOCl together, and incubating for 30 minutes. […] The fluorescence was measured using the PerSeptive Biosystems CytoFluor II fluorescence multi-well plate reader with λex=360 nm λem=530 nm. […]"}, "[3]": {"test": "ThioGlo assay, recycling of selenoxides by thiols: cysteine", "details": "Cys samples", "method": "as §1, §2, §3"}, "[4]": {"test": "ThioGlo assay, recycling of selenoxides by thiols: glutathione", "details": "GSH samples", "method": "as §1, §2, §3"}, "[5]": {"tested_on": "BSA", "test": "3-chlorotyrosine formation by HOCl in BSA (LCMS)", "format": "biochemical, bovine", "details": "FIG. 5A", "method": "(§4) Varying concentrations of Se-sugars (1.0 mM-0.05 mM) were added to solutions containing 0.1 mg·mL^−1 of protein (BSA or Plasma).\n(§5) 150 μL of each sample (Se1HSA1—Control) were added to 50 μL of 3 mM HOCl. Samples, with a final volume of 200 μL, were placed in a glass vial (8×40 mm, 1 mL, No. 98212, Alltech) labeled by etching with a diamond tipped pen or engraver. Proteins (0.1 mg in 200 μL) were delipidated and precipitated by the addition of 25 μL 0.3% (w/v) deoxycholic acid and 50 μL of 50% (w/v) TCA, with incubation on ice for 5 min. The glass vials containing samples were placed in 1.5 mL centrifuge tubes for 2 minutes at 9000 rpm at 5° C. (Eppendorf 5415R centrifuge) to pellet protein. Protein pellets were washed once with 5% (w/v) TCA, and twice with ice cold acetone (stored in […]) with 2 min, 9000 rpm, spins between washes in each case to settle pellets. The samples were then transferred to PicoTag hydrolysis vessels before the addition of 150 μL of 6 M HCl and 50 μL of thioglycolic acid into the PicoTag vessel and placed under vacuum in the oven at 110° C. for 16-18 hours. The PicoTag vessels were removed from oven and allowed to cool before releasing vacuum. […]\n(§6) L-Tyrosine, 3-chlorotyrosine and di-tyrosine were analysed by LC-MS in the positive ion mode with a Finigan LCQ Deca XP ion-trap instrument coupled to a Finigan surveyor HPLC system. […]"}, "[6]": {"tested_on": "human plasma", "test": "3-chlorotyrosine formation by HOCl in human plasma (LCMS)", "format": "biochemical", "details": "FIG. 5B", "method": "as §4, §5, §6"}}, "data": [{"smiles": "O[C@@H]1C[Se]C[C@H]1O", "note": "(racemic) [DHSred, DL-trans-3,4,-Dihydroxy-L-selenolane]", "values": [{"measurement": "inflammatory response during wound healing", "setting": "[1]; FIG. 25", "value": "resulted in an inflammatory response"}, {"measurement": "pus formation in wound", "setting": "[1]; same dose, FIG. 25", "value": "development of pus"}, {"measurement": "wound healing (appearance)", "setting": "[1]; same dose", "value": "inferior healing"}, {"measurement": "wound healing (appearance)", "setting": "[1]; same dose, listed as DL-trans-3,4,-Dihydroxy-L-selenolane", "value": "reduced wound healing"}, {"measurement": "pus formation in wound", "setting": "[1]; same dose, FIG. 25, listed as DL-trans-3,4,-Dihydroxy-L-selenolane", "value": "observable pus formation"}, {"measurement": "scar tissue formed during wound healing", "setting": "[1]; wildtype mice, same dose, FIG. 26", "value": "pronounced scar tissue build up"}]}, {"smiles": "C[Se](=O)CC[C@H](N)C(=O)O", "note": "(stereo partly drawn) [SeMetO, selenomethionine oxide]", "values": [{"measurement": "reduction of selenoxide by thiol group", "setting": "[2]", "value": "less marked"}, {"measurement": "amount of thiols after selenoxide addition", "setting": "[3]", "value": "dose dependent decreases"}, {"measurement": "amount of thiols after selenoxide addition", "setting": "[4]", "value": "dose dependent decreases"}]}, {"smiles": "O=[Se]1C[C@@H](O)[C@@H](O)[C@@H]1[C@H](O)CO", "note": "(stereo partly drawn) [SeTalO]", "values": [{"measurement": "reduction of selenoxide by thiol group", "setting": "[2]", "value": "less marked"}, {"measurement": "amount of thiols after selenoxide addition", "setting": "[3]", "value": "dose dependent decreases"}, {"measurement": "amount of thiols after selenoxide addition", "setting": "[4]", "value": "dose dependent decreases"}]}, {"smiles": "OCC1[Se]CC(O)C(O)[C@@H]1O", "note": "(stereo partly drawn) [compound 4, 1,5-Anhydro-5-seleno-L-gulitol]", "values": [{"measurement": "3-chloro-tyrosine formation by HOCl", "setting": "[5]", "value": "effectively preventing"}, {"measurement": "3-chloro-tyrosine formation by HOCl", "setting": "[6]", "value": "effectively preventing"}]}, {"smiles": "OC[C@@H](O)[C@@H]1[Se]C[C@@H](O)[C@H]1O", "note": "[compound 38, 1,4.-Anhydro-4-seleno-D-talitol]", "values": [{"measurement": "wound healing (appearance)", "setting": "[1]; same dose", "value": "improved wound closure and healing"}]}]}
